Data: paper PMC12520456, “Regulating Enzyme Activity via Microaggregates Mediated by Phase Separation” (Advanced Science, 2025)
Non-standard residues stand in square brackets, D forms with d. Residues, ends and D or L forms follow the SMILES beside them.

Columns and labels:
[1] = Ca-binding assay; conditions: peptide 0.625-30 mg/mL with 3 μg/mL Ca2+, 20 mM sodium phosphate buffer pH 7.4, 37 °C 30 min; supernatant calcium by kit; four independent repeats; Figure S1C
Description: circular dichroism spectrum and molar ellipticity (kdeg·cm2/mol) on the y-axis.
3.3 Peptide Synthesis and DPMD Preparation
All peptides were synthetized according to the optimized HBTU activation/DIEA in situ neutralization protocol developed by […] on the CS bio 336X automated peptide synthesizer. Briefly, after cleavage and deprotection in a reagent cocktail containing 88% TFA, 5% phenol, 5% H2O and 2% TIPS, crude products were precipitated with cold ether and purified to homogeneity by preparative C18 reversed-phase HPLC. The molecular masses were ascertained by electrospray ionization mass spectrometry (ESI-MS). […]
0.22μm filter to remove residue. The calcium content of the supernatant was measured using the Calcium ion detection kit (Beyotime) according to the recommended method. […]
Peptide and enzyme solutions were prepared at varying concentrations and mixed at a 1:1 volume ratio. Solution turbidity was quantitatively assessed by monitoring absorbance at 405 nm using a BioTek spectrophotometer. For fluorescence-based characterization, peptides were labeled with FITC while enzymes were labeled with Cy5. […] For fluorescence recovery after photobleaching (FRAP) analysis, enzyme-aggregated patches were selectively bleached at 60% laser power using 488/640 nm lasers for 10 s, followed by time-lapse imaging at 1-min intervals. […]

[2] = tested on: trypsin pre-incubated with aprotinin; assay: Fluorescence anisotropy binding, aprotinin-blocked trypsin; conditions: inhibitor and protein both at 20 μM; Figure S3B
Description: Figure S3. The fluorescent anisotropy evaluation of binding affinity between DPMD peptide with Proteinase K (A), and inhibitor-saturated and blocked trypsin (B) and chymotrypsin (C). Trypsin/Chymotrypsin was saturated and blocked by aprotinin (Yeasen Biotechnology, trypsin/chymotrypsin inhibitor). (D-H) The fluorescent anisotropy evaluation of binding affinity between DPMD peptide with elastase (D), lipase (E), amylase(F), carboxypeptidase (G), albumin (H) and immunoglobulins (I).
Figure S4. The DLS analysis of trypsin, chymotrypsin and DPMD with/without trypsin or chymotrypsin. […]
data acquisition. A series of enzyme solutions with varying concentrations (maximum concentrations of trypsin and chymotrypsin were 20 μM each) were prepared in Tris-HCl buffer (10 mM Tris, 150 mM NaCl, 1 mM EDTA, pH 7.0). These enzyme solutions were added to the 96-well plate and incubated with 100 nM DPMD at room temperature for 30 minutes, with triplicates.
Fluorescence polarization was measured with an excitation wavelength of 470 nm and an emission […]
Plot the fluorescence intensity versus concentration data as scatter plots using Origin software.
For data analysis, fit the concentration-fluorescence polarization data with the logistic function in Origin 2021 software to obtain the fitting curve and determine the half-maximal effective concentration (EC50). […]

Compound: CC[C@@H](C)[C@@H](NC(=O)[C@@H](CCC(N)=O)NC(=O)[C@H](NC(=O)[C@@H](Cc1ccc(O)cc1)NC(=O)CNC(=O)[C@@H](CC(C)C)NC(=O)[C@H](NC(=O)[C@@H](CO)NC(=O)CNC(=O)[C@@H](C)NC(=O)[C@@H](CC(=O)O)NC(=O)[C@@H](C)NC(=O)[C@@H](CCCNC(=N)N)NC(=O)[C@@H](C)NC(=O)[C@@H](CC(=O)O)NC(=O)[C@@H](C)NC(=O)[C@@H](CCCNC(=N)N)NC(=O)[C@@H](C)NC(=O)[C@@H](CC(=O)O)NC(=O)[C@@H](C)NC(=O)[C@@H](CCCNC(=N)N)NC(=O)[C@@H](C)NC(=O)[C@@H](CC(=O)O)NC(=O)[C@@H](C)NC(=O)[C@H](N)CCCNC(=N)N)C(C)C)[C@H](C)CC)C(=O)N[C@H](CCCNC(=N)N)C(=O)O [DPMD, Ac‐(D‐RADA)4‐CONH2] (H-[dR][dA][dD][dA][dR][dA][dD][dA][dR][dA][dD][dA][dR][dA][dD][dA]G[dS][dV][dL]G[dY][dI][dQ][dI][dR]-OH; N-terminus and C-terminus assumed)
- Ca^2+ binding capacity [1]: clear binding affinity
- anisotropy change with aprotinin-blocked trypsin [2]: only a minimal anisotropy change
